Source: patent US5948793A, “3-pyridyloxymethyl heterocyclic ether compounds useful in controlling neurotransmitter release” (Abbott Laboratories, priority 1995, dated 1999)
Structures can show the parent of a compound that is named as a salt. Where two headings read alike, the source gives them in different places.

Biological target: neuronal nicotinic cholinergic channel receptors
Assay: [3H]-cytisine displacement binding to neuronal nicotinic cholinergic channel receptors
Type: rat (crude synaptic membranes from whole rat brain)
Conditions: read-out: Receptor Binding Ki
Method: B. Protocol For Determination of Nicotinic Cholinergic Channel Receptor Binding Potencies of Ligands
Binding of [^3 H]-cytisine ([^3 H]-CYT) to nicotinic receptors was accomplished using crude synaptic membrane preparations from whole rat brain (Pabreza et al., Molecular Pharmaol., 1990, 39:9). Washed membranes were stored at -80° C. prior to use. Frozen aliquots were slowly thawed and resuspended in 20 volumes of buffer (containing: 120 mM NaCl, 5 mM KCl, 2 mM MgCl2, 2 mM CaCl2 and 50 mM Tris-Cl, pH 7.4 @4° C.). After centrifuging at 20,000×g for 15 minutes, the pellets were resuspended in 30 volumes of buffer. Homogenate (containing […]) was added to triplicate tubes containing concentrations of test compound and [^3 H]-CYT (1.25 nM) in a final volume of 500 μL. Samples were incubated for 60 minutes at 4° C., then rapidly filtered through Whatman GF/B filters presoaked in 0.5% polyethylimine using 3×4 mL of ice-cold buffer. The filters are counted in 4 mL of Ecolume® (ICN). […] Alternately, data were expressed as a percentage of the total specific binding.

[1] = Table 2, [3H]-cytisine 1.25 nM, 60 min at 4° C.

Compound | Ki [1] [nM] | other results
CN1CCC[C@H]1COc1cncc([N+](=O)[O-])c1 [Example 108, 5-Nitro-3-(1-methyl-2(S)-pyrrolidinylmethoxy)pyridine hydrochloride] | 4.9 | 
CCCc1cncc(OC[C@@H]2CCCN2C)c1 [Example 77, 5-n-propyl-3-((1-methyl-2-(S)-pyrrolidinyl)methoxy)pyridine dihydrochloride] | 0.1 | 
CN1C[C@H](O)C[C@H]1COc1cccnc1 [Example 23, 3-((trans-1-methyl-4-hydroxy-2(S)-pyrrolidinyl)methoxy)pyridine dihydrochloride] |  | Ki: 78.3 nM
CN1C[C@H](OS(C)(=O)=O)C[C@H]1COc1cccnc1 [Example 87, 3-((trans-4-methanesulfonyloxy-1-methyl-2(S)-pyrrolidinyl)methoxy)pyridine dihydrochloride] | 0.11 | 
CN1CCC[C@H]1CCOc1cccnc1 [Example 103, 3-(2-(1-methyl-2-(S)-pyrrolidinyl)ethoxy)pyridine dihydrochloride] | 18.4 | 
CN1C[C@H](CO)C[C@H]1COc1cccnc1 [Example 83, 3-((trans-4-hydroxymethyl-1-methyl-2-(S)-pyrrolidinyl)methoxy)pyridine dihydrochloride] | 73.1 | 
FC(F)(F)c1cncc(OC[C@@H]2CCCN2)c1 [Example 66, 3-(2-(S)-pyrrolidinylmethoxy)-5-trifluoromethylpyridine dihydrochloride] | 4 | 
Cc1ncccc1OC[C@@H]1CCN1 [Example 29, 2-methyl-3-(2-(S)-azetidinylmethoxy)pyridine dihydrochloride] |  | Ki: 1.3 nM
CN1CC[C@H]1COc1cncc(Cl)c1 [Example 80, 5-chloro-3-((1-methyl-2-(S)-azetidinyl)methoxy)pyridine dihydrochloride] | 1.9 | 
COCC1C[C@@H](COc2cccnc2)N(C)C1 (stereo partly drawn) [Example 49, 3-((4-methoxymethyl-1-methyl-2-(S)-pyrrolidinyl)methoxy)pyridine dihydrochloride] | 66 | 
Cc1ncccc1OC[C@@H]1CCCN1C [Example 53, 2-methyl-3-(1-methyl-2-(S)-pyrrolidinylmethoxy)pyridine dihydrochloride] | 28 | 
Cc1ccc(OC[C@@H]2CCN2)cn1 [Example 40, 6-methyl-3-(2(S)-azetidinylmethoxy)pyridine dihydrochloride] | 0.05 | 
CC[C@@H]1C[C@@H](COc2cccnc2)N(C)C1 [Example 25, 3-((trans-1-methyl-4-ethyl-2(S)-pyrrolidinyl)methoxy)pyridine dihydrochloride] |  | Ki: 14.7 nM
Brc1ccncc1OC[C@@H]1CCCN1 [Example 20, 4-bromo-3-(2-(S)-pyrrolidinylmethoxy)pyridine dihydrochloride] |  | Ki: 341 nM
C=CCN1CCC[C@H]1COc1cccnc1 [Example 82, 3-((1-allyl-2-(S)-pyrrolidinyl)methoxy)pyridine dihydrochloride] | 72.4 | 
Cc1ncccc1OC[C@H]1CCN1 [Example 41, 2-methyl-3-(2-(R)-azetidinylmethoxy)pyridine dihydrochloride] |  | Ki (Table 2, [3H]-cytisine 1.25 nM, 60 min at 4° C., dihydrochloride): 9.9 nM
CN1CCC[C@H]1COc1nccs1 [Example 11, 2-((1-methyl-2-(S)-pyrrolidinyl)methoxy)thiazole hydrochloride] | 110 | 
Clc1ccc(OC[C@@H]2CCN2)nn1 [Example 85, 3-(2-(S)-azetidinylmethoxy)-6-chloropyridazine hydrochloride] | 16 | 
CN1CCC[C@H]1COc1cncc(C(F)(F)F)c1 [Example 44, 3-(1-methyl-2-(S)-pyrrolidinylmethoxy)-5-trifluoromethylpyridine dihydrochloride] | 1.8 | 
CN1CCC[C@H]1CCOc1ccc(Cl)nc1 [Example 105, 3-(2-(1-methyl-2-(S)-pyrrolidinyl)ethoxy-6-chloropyridinedihydrochloride] | 33.1 | 
C=CCN1CCC[C@H]1COc1cncc(Br)c1 [Example 57, 3-((1-allyl-2-(S)-pyrrolidinyl)methoxy)-5-bromopyridine dihydrochloride] | 17 | 
Cc1cncc(OC[C@@H]2CCCN2C)c1 [Example 73, 5-methyl-3-(1-methyl-2-(S)-pyrrolidinylmethoxy)pyridine dihydrochloride] | 0.48 | 
CN1CCC[C@@H]1COc1cncc(Br)c1 [Example 56, 5-bromo-3-((1-methyl-2-(R)-pyrrolidinyl)methoxy)pyridine hydrochloride] | 9.2 | 
CN1CCC[C@H]1COc1cncc(Br)c1 [Example 28, 5-bromo-3-((1-methyl-2-(S)-pyrrolidinyl)methoxy)pyridine dihydrochloride] |  | Ki: 0.23 nM
Clc1ncccc1OC[C@@H]1CCCN1 [Example 43, 2-chloro-3-(2-(S)-pyrrolidinylmethoxy)pyridine dihydrochloride] | 18.6 | 

Compound | Ki [1] [nM] | other results
CCC[C@H]1CCN[C@H]1COc1cccnc1 (relative stereo) [Example 61, 3-((cis-3-propyl-2-pyrrolidinyl)methoxy)pyridine dihydrochloride] | 1.3 | 
O[C@H]1CN[C@H](COc2cccnc2)C1 [Example 72, 3-((trans-4-hydroxy-2-(S)-pyrrolidinyl)methoxy)pyridine dihydrochloride] | 110 | 
FC(F)(F)c1cncc(OC[C@@H]2CCN2)c1 [Example 70, 3-(2-(S)-azetidinylmethoxy)-5-trifluoromethylpyridine dihydrochloride] | 0.6 | 
CC(Oc1cccnc1)[C@@H]1CCCN1C (stereo partly drawn) [Example 6, 3-(a-methyl-(1-methyl-2-(S)-pyrrolidinyl)methoxy)pyridine hydrochloride] |  | Ki: 6.7 nM
CN1CC[C@H]1COc1ccc(Cl)nn1 [Example 13, 6-chloro-3-((1-methyl-2(S)-azetidinyl)methoxy)pyridazine oxalate] |  | Ki: 65 nM
CO[C@@H]1C[C@@H](COc2cccnc2)N(C)C1 [Example 47, 34 (trans-4-methoxy-1-methyl-2-(S)-pyrrolidinyl)methoxy)pyridine dihydrochloride] | 23 | 
Clc1ccc(OC[C@@H]2CCCN2)cn1 [Example 45, 3-(2-(S)-pyrrolidinylmethoxy)-6-chloropyridine dihydrochloride] | 0.075 | 
CN1C[C@H](CC#N)C[C@H]1COc1cccnc1 [Example 50, 3-((trans-4-cyanomethyl-1-methyl-2-(S)-pyrrolidinyl)methoxy)pyridine dihydrochloride] | 5.6 | 
CN1CCCC[C@@H]1COc1cccnc1 [Example 42, 3-((1-methyl-2-(R)-piperidinyl)methoxy)pyridine dihydrochloride] | 342 | 
C[C@H]1CC[C@@H](COc2cccnc2)N1C [Example 22, 3-((cis-1,5-dimethyl-2-(S)-pyrrolidinyl)methoxy)pyridine dihydrochloride] |  | Ki: 25 nM
Cc1ccncc1OC[C@@H]1CCCN1 [Example 27, 4-methyl-3-(2-(S)-pyrrolidinylmethoxy)pyridine dihydrochloride] |  | Ki: 5.8 nM
c1cncc(OCC[C@@H]2CCCN2)c1 [Example 102, 3-(2-(2-(S)-pyrrolidinyl)ethoxy)pyridine dihydrochloride] | 34.9 | 
CN1CCC[C@H]1COc1cccnn1 [Example 79, 3-((1-methyl-2-(S)-pyrroidinyl)methoxy)pyridazine dihydrochloride] | 42.8 | 
FC(F)(F)c1cncc(OC[C@H]2CCCN2)c1 [Example 69, 3-(2-(R)-pyrrolidinylmethoxy)-5-trifluoromethylpyridine dihydrochloride] | 2.1 | 
CN1CCC[C@H]1COc1ccc(CO)nc1 [Example 88, 6-hydroxymethyl-3-((1-methyl-2-(S)-pyrrolidinyl)methoxy)pyridine dihydrochloride] | 10.4 | 
CN1CCC[C@@H]1COc1cncc(Cl)c1 [Example 34, 5-chloro-3-((1-methyl-2-(R)-pyrrolidinyl)methoxy)pyridine dihydrochloride] |  | Ki: 11 nM
CN1CCCCC1COc1cccnc1 (stereo not shown) [Example 26, 3-((1-methyl-2-piperidinyl)methoxy)pyridine oxalate salt] |  | Ki: 76 nM
CN1CCC[C@H]1COc1cncnc1 [Example 84, 5-(1-methyl-2-(S)-pyrrolidinylmethoxy)pyrimidine dihydrochloride] | 2.41 | 
CN1CCC[C@H]1COc1ccc(Cl)nc1 [Example 55, 6-chloro-3-((1-methyl-2-(S)-pyrrolidinyl)methoxy)pyridine dihydrochloride] | 0.63 | 
CN1CCC[C@@H]1COc1ccc(Cl)nn1 [Example 5, oxalate] |  | Ki: 87 nM
C[C@@H]1C[C@@H](COc2cccnc2)N(C)C1 [Example 24, 3-((trans-1,4-dimethyl-2(S)-pyrrolidinyl)methoxy)pyridine dihydrochloride] |  | Ki: 4.2 nM
CN1CCC[C@H]1COc1cncc2ccccc12 [Example 32, 4-(1-methyl-2-(S)-pyrrolidinylmethoxy)isoquinoline hydrochloride] |  | Ki: 110 nM
CO[C@H]1CN[C@H](COc2cccnc2)C1 [Example 74, 3-((trans-4-methoxy-2-(S)-pyrrolidinyl)methoxy)pyridine dihydrochloride] | 59 | 
CN1CC[C@H]1COc1ccc(Cl)nc1 [Example 86, 3-((1-methyl-2-(S)-azetidinyl)methoxy)-6-chloropyridine hydrochloride] | 1.43 | 
